Assay results reported in US20120196342A1, “Industrial Applications of A Novel Aldo/Keto Reductase Of Zymomonas Mobilis” (priority 2011, published 2012).
Read-outs that look alike come from different tables or passages of the source.

Columns and labels:
recombinant ZMO0976 = target: T1, recombinant ZMO0976 (Zymomonas mobilis, UniProt Q5NNW0); assay: Substrate and cofactor profile and Michaelis-Menten kinetics of recombinant ZMO0976; type: biochemical, Z. mobilis
T1 sequence (Q5NNW0 1-340): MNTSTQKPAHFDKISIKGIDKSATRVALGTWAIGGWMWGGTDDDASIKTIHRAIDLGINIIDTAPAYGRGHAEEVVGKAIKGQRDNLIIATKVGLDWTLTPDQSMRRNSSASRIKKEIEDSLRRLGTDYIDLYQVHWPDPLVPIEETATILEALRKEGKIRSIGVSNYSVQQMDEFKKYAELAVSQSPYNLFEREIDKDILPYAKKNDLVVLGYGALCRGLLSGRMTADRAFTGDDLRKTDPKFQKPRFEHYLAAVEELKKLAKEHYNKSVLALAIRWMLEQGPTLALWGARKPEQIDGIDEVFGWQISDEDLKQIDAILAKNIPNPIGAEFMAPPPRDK
Method: (§1) E. coli cells were prepared for enzymatic assays using the procedure described in, for example, Akinterinwa, and Cirino, “Heterologous expression of D-xylulokinase from Pichia stipitis enables high levels of xylitol production by engineered Escherichia coli growing on xylose,” Metabolic Engineering 11(1): pp. 48-55. Briefly, cells were harvested by centrifugation at 5,000 g at 4° C. for 30 min. Cells were washed once with extraction buffer [10 mM Tris-HCl pH 7.5, 5 mM MgCl2, 1 mM dithothreitol (DTT) and 1 mM phenylmethylsulfonyl fluoride (PMSF) (Sigma-Aldrich, St. Louis, Mo.)]. Washed cell pellets were stored at −20° C. until use. Cell pellets were resuspended to an OD of 50 in equilibration buffer (50 mM Na2HPO4, 300 mM NaCl and 10 mM imidazole at pH 8 (Sigma-Aldrich, St. Louis, Mo.)) supplemented with 1 mM DTT and 1 mM PMSF, and sonicated (8 cycles of 10 s with 30 s cooling period). Cell debris was discarded after centrifugation at 16,000 g for 20 min at 4° C. Supernatant was used as cell-free extract (CFE) for enzymatic assays. Bradford Assay was used for estimation of protein concentration in the extract. His-tagged protein in the cell-free extract was purified at 4° C. using HIS-Select® HF Nickel Affinity Gel (Sigma-Aldrich, St. Louis, Mo.), which employs immobilized metal-ion affinity chromatography (IMAC). Manufacturer's protocol for large scale purification was followed. Briefly, 10 ml of cell-free extract was added to 1 ml of affinity gel in equilibration buffer. After overnight incubation, the gel was washed five times with equilibration buffer. The bound his-tagged protein was then eluted using 2 ml of elution buffer (50 mM Na2HPO4, 300 mM NaCl and 250 mM imidazole at pH 8). Imidazole was removed by overnight dialysis at 4° C. using extraction buffer as the dialysis solution.
(§2) Cell-free extract for Z. mobilis was prepared as above except that extraction buffer was used for sonication and after which, cell debris were spun down at higher centrifugal force (53,300 g). All enzymatic assay reactions were carried out in a final volume of 200 μl on a microplate. NAD(P)H (Sigma-Aldrich, St. Louis, Mo.) absorbance was measured at 340 nm using Spectramax M5 Plus spectrophotometer (Molecular devices, Sunnyvale, Calif.). Xylose reductase was assayed in McIlvaine buffer at pH 7.2 (prepared by adding 16.5 ml of 0.2 M Na2HPO4 to 3.5 ml of 0.1 M citric acid (Sigma-Aldrich, St. Louis, Mo.)) containing 0.35 mM NADPH or NADH (as indicated) and an appropriate volume of sample (cell-free extract or purified protein) according to Viikari, L. and M. Korhola (1986), “Fructose metabolism in Zymomonas mobilis,” Applied Microbiology and Biotechnology 24(6): 471-476.
(§3) Xylose concentration in the assay mixture is indicated in the text. For measuring the catalytic activity of xylose reductase towards other substrates, similar assay conditions were used. Km and Vmax were determined by varying the substrate concentrations in the assay mixture and fitting the data to Lineweaver-Burk equation: 1/v=(Km/Vmax) […]+1/Vmax. Xylitol concentration was determined enzymatically. The reaction was carried out with a total volume of 200 μl in 42 mM Tris-HCl buffer at pH 8.5, 5 mM NAD, 10 mM MgSO4 (Sigma-Aldrich, St. Louis, Mo.), 4 U/ml sorbitol dehydrogenase (Roche Diagnostics, Indianapolis, Ind.) and 10 μl of sample. Xylitol concentration was estimated based on the amount of NADH produced by xylitol containing samples compared to that produced by xylitol standards. SDS-PAGE and Coommassie blue staining were used to confirm the expression of ZMO0976 and mZMO0976 proteins. 15 μg of cell-free extract protein and 1 μg of purified protein were loaded on a 12% Tris-HCl gel (Bio-Rad, Hercules, Calif.). Cell growth was determined by measuring optical density (OD) at 600 nm using spectrophotometer (Beckman Coulter DU 530, Brea, Calif.).

Z. mobilis = conditions: cited from earlier work
[1] = NADPH-dependent xylose reductase (XR) activity of recombinant ZMO0976/mZMO0976, E. coli UT5600 cell-free extract and purified protein; type: biochemical; conditions: for XR activities of the purified proteins: His-tag purified protein, NADPH; for Xylose reductase activity: NADPH as cofactor, purified protein or cell-free extract (CFE) as named in label
Method: as §1, §2
as §3, with “Xylitol concentration was estimated based on the amount of NADH produced by xylitol containing samples compared to that produced by xylitol standards. SDS-PAGE and Coommassie blue staining were used to confirm the expression of ZMO0976 and mZMO0976 proteins. 15 μg of cell-free extract protein and 1 μg of purified protein were loaded on a 12% Tris-HCl gel (Bio-Rad, Hercules, Calif.).” left out

[2] = Reductase activity of purified ZMO0976/mZMO0976 towards benzaldehyde; type: biochemical; conditions: for Specific XR activity, Benzaldehyde (2 mM): purified protein, no unit in table, in mU/mg protein
Method: (§4) E. coli cells were prepared for enzymatic assays using the procedure described in, for example, Akinterinwa, and Cirino, “Heterologous expression of D-xylulokinase from Pichia stipitis enables high levels of xylitol production by engineered Escherichia coli growing on xylose,” Metabolic Engineering 11(1): pp. 48-55. Briefly, cells were harvested by centrifugation at 5,000 g at 4° C. for 30 min. Cells were washed once with extraction buffer [10 mM Tris-HCl pH 7.5, 5 mM MgCl2, 1 mM dithothreitol (DTT) and 1 mM phenylmethylsulfonyl fluoride (PMSF) (Sigma-Aldrich, St. Louis, Mo.)]. Washed cell pellets were stored at −20° C. until use. Cell pellets were resuspended to an OD of 50 in equilibration buffer (50 mM Na2HPO4, 300 mM NaCl and 10 mM imidazole at pH 8 (Sigma-Aldrich, St. Louis, Mo.)) supplemented with 1 mM DTT and 1 mM PMSF, and sonicated (8 cycles of 10 s with 30 s cooling period). Cell debris was discarded after centrifugation at 16,000 g for 20 min at 4° C. Supernatant was used as cell-free extract (CFE) for enzymatic assays. Bradford Assay was used for estimation of protein concentration in the extract. His-tagged protein in the cell-free extract was purified at 4° C. using HIS-Select® HF Nickel Affinity Gel (Sigma-Aldrich, St. Louis, Mo.), which employs immobilized metal-ion affinity chromatography (IMAC). […]
(§5) Cell-free extract for Z. mobilis was prepared as above except that extraction buffer was used for sonication and after which, cell debris were spun down at higher centrifugal force (53,300 g). […] NAD(P)H (Sigma-Aldrich, St. Louis, Mo.) absorbance was measured at 340 nm using Spectramax M5 Plus spectrophotometer (Molecular devices, Sunnyvale, Calif.). […]
(§6) Xylose concentration in the assay mixture is indicated in the text. […] Km and Vmax were determined by varying the substrate concentrations in the assay mixture and fitting the data to Lineweaver-Burk equation: 1/v=(Km/Vmax) […]+1/Vmax. Xylitol concentration was determined enzymatically. […] Cell growth was determined by measuring optical density (OD) at 600 nm using spectrophotometer (Beckman Coulter DU 530, Brea, Calif.).

[3] = Reductase activity of purified ZMO0976/mZMO0976 towards furfural; type: biochemical; conditions: for Specific XR activity, Furfural (10 mM): purified protein, no unit in table, in mU/mg protein
Method: as §4, §5, §6

[4] = Reductase activity of purified ZMO0976/mZMO0976 towards acetaldehyde; type: biochemical; conditions: for Specific XR activity, Acetaldehyde (520 mM): purified protein, no unit in table, in mU/mg protein
Method: as §4, §5, §6

[5] = substrate 260 mM; NADPH cofactor; benzaldehyde = 1
[6] = 0.35 mM NADPH; Lineweaver-Burk fit

CC=O [Acetaldehyde]
Activity of ZMO0976 towards the substrate (in words) (recombinant ZMO0976; NADPH as cofactor): showed activity | Fold reduction in ZMO0976 activity with NADH as cofactor compared to NADPH (recombinant ZMO0976; substrate 260 mM; 0.35 mM of either cofactor): 53 | Relative activity (recombinant ZMO0976; [5]): 0.62

O=Cc1ccccc1 [Benzaldehyde]
Affinity of ZMO0976 compared with xylose (in words) (recombinant ZMO0976): one to two orders of magnitude higher | Km, fold lower than xylose (recombinant ZMO0976): about 150 fold | Apparent Vmax (recombinant ZMO0976; [6]): 7200 ± 200 mU/mg protein | Km (recombinant ZMO0976; 0.35 mM NADPH; Lineweaver-Burk fit; read-out: Apparent Km): 1770 µM | Activity of ZMO0976 towards the substrate (in words) (recombinant ZMO0976; NADPH as cofactor): showed activity | Relative activity (recombinant ZMO0976; substrate 2 mM; NADPH cofactor; benzaldehyde = 1): 1

O=C(CO)[C@@H](O)[C@H](O)[C@H](O)CO [Fructose]
Activity of ZMO0976 towards the substrate (in words) (recombinant ZMO0976; NADPH as cofactor): negligible activity | Relative activity (recombinant ZMO0976; [5]): 0

O=Cc1ccco1 [Furfural]
Concentration at which growth is completely inhibited (Z. mobilis): 52 mM | Concentration that reduces the growth rate of Z. mobilis by 25% (Z. mobilis): 7.3 mM | Affinity of ZMO0976 compared with xylose (in words) (recombinant ZMO0976): one to two orders of magnitude higher | Apparent Vmax (recombinant ZMO0976; [6]): 5000 ± 1300 mU/mg protein | Activity of ZMO0976 towards the substrate (in words) (recombinant ZMO0976; NADPH as cofactor): showed activity | Km (recombinant ZMO0976; read-out: Apparent Km; 0.35 mM NADPH; Lineweaver-Burk fit): 4150 µM | Relative activity (recombinant ZMO0976; substrate 5.2 mM; NADPH cofactor; benzaldehyde = 1): 0.81 | Fold reduction in ZMO0976 activity with NADH as cofactor compared to NADPH (recombinant ZMO0976; substrate 10 mM; 0.35 mM of either cofactor): 10

O=Cc1ccc(CO)o1 [HMF, 5-hydroxymethylfurfural]
Concentration at which growth is completely inhibited (Z. mobilis): 63 mM | Concentration that reduces the growth rate of Z. mobilis by 25% (Z. mobilis): 9.5 mM | Activity of ZMO0976 towards the substrate (in words) (recombinant ZMO0976; NADPH as cofactor): showed activity | Relative activity (recombinant ZMO0976; substrate 10 mM; NADPH cofactor; benzaldehyde = 1): 0.11

B1: ZMO0976: 341 amino acid aldo/keto reductase of Z. mobilis ZM4, His-tagged, expressed in E. coli UT5600 (protein)
chain: MNTSTQKPAHFDKISIKGIDKSATRVALGTWAIGGWMWGGTDDDASIKTIHRAIDLGINIIDTAPAYGRGHAEEVVGKAIKGQRDNLIIATKVGLDWTLTPDQSMRRNSSASRIKKEIEDSLRRLGTDYIDLYQVHWPDPLVPIEETATILEALRKEGKIRSIGVSNYSVQQMDEFKKYAELAVSQSPYNLFEREIDKDILPYAKKNDLVVLGYGALCRGLLSGRMTADRAFTGDDLRKTDPKFQKPRFEHYLAAVEELKKLAKEHYNKSVLALAIRWMLEQGPTLALWGARKPEQIDGIDEVFGWQISDEDLKQIDAILAKNIPNPIGAEFMAPPPRDK
modifications: His tag; sequence of aldo/keto reductase ZMO0976 (see Fig. 4A)
notes: 341 amino acid aldo/keto reductase of Z. mobilis ZM4, His-tagged, expressed in E. coli UT5600
XR activities of the purified proteins [1]: 3400 mU/mg | Xylose reductase activity ([1]; listed as Purified recombinant ZMO0976): 3400 ± 200 mU/mg protein | Xylose reductase activity ([1]; listed as ZM00976): 3400±200 mU/mg protein | benzaldehyde reductase activity [2]: 4030±250 mU/mg protein | Specific XR activity, Benzaldehyde (2 mM) [2]: 4030 ± 250 | furfural reductase activity [3]: 5470±60 mU/mg protein | Specific XR activity, Furfural (10 mM) [3]: 5470 ± 60 | acetaldehyde reductase activity [4]: 2500±400 mU/mg protein | Specific XR activity, Acetaldehyde (520 mM) [4]: 2500 ± 400

B2: mZMO0976: mutated ZMO0976 from adapted strain A3, single arginine to cysteine mutation at residue 292 (C874T) (protein)
chain: MNTSTQKPAHFDKISIKGIDKSATRVALGTWAIGGWMWGGTDDDASIKTIHRAIDLGINIIDTAPAYGRGHAEEVVGKAIKGQRDNLIIATKVGLDWTLTPDQSMRRNSSASRIKKEIEDSLRRLGTDYIDLYQVHWPDPLVPIEETATILEALRKEGKIRSIGVSNYSVQQMDEFKKYAELAVSQSPYNLFEREIDKDILPYAKKNDLVVLGYGALCRGLLSGRMTADRAFTGDDLRKTDPKFQKPRFEHYLAAVEELKKLAKEHYNKSVLALAIRWMLEQGPTLALWGACKPEQIDGIDEVFGWQISDEDLKQIDAILAKNIPNPIGAEFMAPPPRDK
modifications: His tag; sequence of aldo/keto reductase mZMO0976 (see Fig. 4B)
XR activities of the purified proteins [1]: 140 mU/mg | Xylose reductase activity [1]: 140 ± 50 mU/mg protein | Specific XR activity, Benzaldehyde (2 mM) [2]: 40 ± 10 | Specific XR activity, Furfural (10 mM) [3]: 180 ± 30 | Specific XR activity, Acetaldehyde (520 mM) [4]: 170 ± 30
